In article PMC8162360, “Total synthesis of biseokeaniamides A–C and late-stage electrochemically-enabled peptide analogue synthesis” (Chemical Science, 2020):
Read-outs that look alike come from different tables or passages of the source. Non-standard residues stand in square brackets, D forms with d. Residues, ends and D or L forms follow the SMILES beside them. *: point of attachment. NMeF = CN[C@@H](Cc1ccccc1)C(=O)O; NMeV = CN[C@H](C(=O)O)C(C)C; Butyryl = CCCC(=O)*; X1 = CN(Cc1cccs1)*

Assays:
[1] = cited from earlier work
Text: Probing the electrochemical generation and reactivity of N,O-acetals | column: pKa (R–OH)[27,28] || The reactivity of the methanol-derived N,O-acetal 6a was examined using a Friedel–Crafts-type reaction with thiophene in the presence of TFA (2.0 equiv.), which serves to regenerate the N-acyliminium for nucleophilic attack. […] How ...

HeLa S3 cells = experiment: MTT 72 hour viability assay, HeLa S3 cells; format: cell-based
Protocol: (§1) Evaluation of biological activity
(§2) Cell Culture of A549 and HeLa S3 Cells
(§3) 1. A549 cells (ATCC® CCL-185) were cultured at 37 °C with 5% CO2 in DMEM/F12 (Ham)
(§4) medium (Gibco, CAT#11330-032) supplemented with 10% fetal bovine serum (FBS) (Sigma-
(§5) 2. HeLa S3 cells were cultured at 37 °C with 5% CO2 in F-12K nutrient mixture, Kaighn's
(§6) modification medium (Gibco, CAT#21127-022) supplemented with 10% fetal bovine serum
(§7) (FBS) (Sigma-Aldrich, CAT#F9423).
(§8) 3. To subculture cells, media was aspirated and cell monolayers were washed once with dPBS
(§9) (Gibco), and then detached using Trypsin-EDTA (0.25%, Gibco CAT#25200114), followed
(§10) by neutralisation with growth media. Quantitation of cell number was obtained using the Life
(§11) Technologies Countess II automated cell counter.
(§12) MTT 72 Hour Viability Assay
(§13) 1. A549 and HeLa S3 cells were seeded at 600 cells/well in 40 µL into a Corning clear 384-
(§14) well plate (CAT# 3701) using the Biotek EL406, and cultured overnight.
(§15) 2. Cells were then treated with various concentrations of compounds for 72 h. 0.2% DMSO
(§16) and 25 µM Etoposide (Sigma-Aldrich) were used as controls.
(§17) 3. 10 µL of MTT reagent (ThermoFisher, diluted to 2.5 mg/mL in DPBS) was then added to
(§18) cells and incubated at 37 °C for 1.5 h.
4. Plates were then centrifuged at 800 × g for 5 min and the supernatant flicked off. 25 µL of
isopropanol/HCl solution was then added to each well using the Biotek EL406 and the plates
5. Absorbance was then read at 570 nm using the PerkinElmer EnVision Multimode plate
6. Statistical Analysis: Results were normalised to the average blank value (media only
control), and then presented as a percentage of the control (0.2% DMSO (vehicle) treated cells)

[2] = test system: A549 cells (ATCC CCL-185); format: cell-based; settings: 72 h
Protocol: as §1, §2, §3, §4, §5, §6, §7, §8, §9, §10, §11, §12, §13, §14, §15, §16, §17, §18
4. Plates were then centrifuged at 800 × g for 5 min and the supernatant flicked off. 25 µL of […]
5. Absorbance was then read at 570 nm using the PerkinElmer EnVision Multimode plate […]

[3] = pKa of the alcohol or carboxylic acid R-OH used in the electrolysis

| IC50 (HeLa S3 cells; 72 h) | IC50 [2] | SMILES | pKa (R–OH) [1, 3] | also measured |
| --- | --- | --- | --- | --- |
| – | – | OC(C(F)(F)F)C(F)(F)F [(CF3)2CH, hexafluoroisopropanol] | 9.3 | – |
| – | – | OCC(F)(F)F [CF3CH2, trifluoroethanol] | – | pKa (R–OH) [1]: 12.5 |
| – | – | O=C(O)C(Cl)(Cl)Cl [Cl3CCO] | 0.85 | – |
| 9.2 µM | 7.9 µM | C=CCCN(C)C(=O)[C@@H](NC(=O)[C@H](CC(C)C)NC(=O)[C@H](Cc1ccccc1)NC(C)=O)C(C)C [Compound 19] | – | cytotoxicity compared with natural products 1a-1c (HeLa S3 cells): enhanced cytotoxicity in relation to the natural products |
| 18.4 µM | 27.4 µM | CCCC(=O)N(C)[C@H](C(=O)N1CCC[C@H]1C(=O)N(C)[C@@H](Cc1ccccc1)C(=O)N[C@@H](CC(C)C)C(=O)N[C@H](C(=O)N(C)Cc1cccs1)C(C)C)C(C)C [Compound 21] (Butyryl-[NMeV]P[NMeF]LV-X1) | – | cytotoxicity compared with natural products 1a-1c (HeLa S3 cells; comparative HeLa cell viability assays, Fig. 1A, MTT, 72 h): enhanced cytotoxicity in relation to the natural products |
| – | – | CO [Me, methanol] | 15.5 | – |
